Measurements published in the NIST ThermoML archive (doi:10.1016/j.jct.2018.02.013).

How the values were obtained:
[1] = wn = mass fraction of the nth substance listed; details: 101 kPa, Liquid; for mass density: Vibrating tube method; for thermal conductivity: transient hot wire; for viscosity: Cone and plate viscometry; for electrical conductivity: Direct current cell with electrodes
[2] = molar heat capacity at constant pressure; wn = mass fraction of the nth substance listed; details: 101 kPa, Liquid, Small sample (50 mg) DSC

CCCC(=O)[O-].CCCCCCCCCCCCCC[P+](CCCCCC)(CCCCCC)CCCCCC [trihexyl(tetradecyl)phosphonium butyrate] + O
w2 = 0.1668
Details | electrical conductivity [S/m] | mass density [kg/m3] | molar heat capacity at constant pressure [J/K/mol] | thermal conductivity [W/m/K] | viscosity [mPa·s]
[1], 298.15 K | – | 907.8 | – | 0.189 | –
[1], 298.2 K | – | – | – | – | 61.46
[1], 302.4 K | 0.11 | – | – | – | –
[1], 303.15 K | – | 904.6 | – | – | –
[1], 303.2 K | – | – | – | – | 48.17
[1], 303.9 K | 0.118 | – | – | – | –
[1], 307.87 K | – | – | – | 0.188 | –
[1], 308.2 K | – | – | – | – | 38.54
[1], 308.4 K | 0.14 | – | – | – | –
[1], 313.15 K | – | 898.3 | – | – | –
[1], 313.2 K | 0.168 | – | – | – | 31.4
[1], 317.99 K | – | – | – | 0.1859 | –
[1], 318.2 K | – | – | – | – | 25.96
[1], 318.8 K | 0.205 | – | – | – | –
[1], 323.15 K | – | 891.9 | – | – | –
[1], 323.2 K | 0.235 | – | – | – | 21.94
[1], 327.77 K | – | – | – | 0.1848 | –
[1], 328.2 K | – | – | – | – | 18.8
[1], 328.4 K | 0.277 | – | – | – | –
[1], 333.15 K | – | 885 | – | – | –
[1], 333.2 K | – | – | – | – | 16.05
[1], 333.4 K | 0.322 | – | – | – | –
[1], 338.18 K | – | – | – | 0.1828 | –
[1], 338.2 K | – | – | – | – | 13.85
[1], 338.8 K | 0.38 | – | – | – | –
[1], 343.15 K | – | 877.8 | – | – | –
[1], 343.2 K | 0.423 | – | – | – | 11.94
[1], 347.9 K | – | – | – | 0.1818 | –
[1], 348.2 K | – | – | – | – | 10.37
[1], 349.7 K | 0.499 | – | – | – | –
[1], 353.15 K | – | 870.5 | – | – | –
[1], 353.2 K | – | – | – | – | 9.056
[1], 358.2 K | – | – | – | 0.1808 | 8.136
[1], 363.15 K | – | 863.9 | – | – | –
[1], 363.2 K | – | – | – | – | 7.26
[1], 368.2 K | – | – | – | – | 7.063
[2], 298.15 K | – | – | 316.94 | – | –
[2], 303.15 K | – | – | 319.46 | – | –
[2], 308.15 K | – | – | 321.6 | – | –
[2], 313.15 K | – | – | 324.22 | – | –
[2], 318.15 K | – | – | 327.2 | – | –
[2], 323.15 K | – | – | 330.19 | – | –
[2], 328.15 K | – | – | 333.45 | – | –
[2], 333.15 K | – | – | 336.44 | – | –
[2], 338.15 K | – | – | 340.64 | – | –
[2], 343.15 K | – | – | 344.65 | – | –
[2], 348.15 K | – | – | 348.29 | – | –
[2], 353.15 K | – | – | 351.74 | – | –
[2], 358.15 K | – | – | 356.22 | – | –
[2], 363.15 K | – | – | 360.42 | – | –

CCCCCC(=O)[O-].CCCCCCCCCCCCCC[P+](CCCCCC)(CCCCCC)CCCCCC [trihexyl(tetradecyl)phosphonium hexanoate] + O
w2 = 0.1583
Details | electrical conductivity [S/m] | mass density [kg/m3] | molar heat capacity at constant pressure [J/K/mol] | thermal conductivity [W/m/K] | viscosity [mPa·s]
[1], 298.15 K | – | 905 | – | – | –
[1], 298.2 K | – | – | – | – | 79.44
[1], 298.75 K | – | – | – | 0.1871 | –
[1], 299.4 K | 0.0753 | – | – | – | –
[1], 303.15 K | – | 901.7 | – | – | –
[1], 303.2 K | – | – | – | – | 63.83
[1], 304 K | 0.0926 | – | – | – | –
[1], 307.76 K | – | – | – | 0.1858 | –
[1], 308.1 K | 0.11 | – | – | – | –
[1], 308.2 K | – | – | – | – | 51.41
[1], 313.15 K | – | 894.6 | – | – | –
[1], 313.2 K | – | – | – | – | 41.45
[1], 313.9 K | 0.132 | – | – | – | –
[1], 317.72 K | – | – | – | 0.1838 | –
[1], 318.2 K | – | – | – | – | 34.56
[1], 318.4 K | 0.16 | – | – | – | –
[1], 323.15 K | – | 888 | – | – | –
[1], 323.2 K | – | – | – | – | 29.8
[1], 323.6 K | 0.184 | – | – | – | –
[1], 327.36 K | – | – | – | 0.1824 | –
[1], 328 K | 0.217 | – | – | – | –
[1], 328.2 K | – | – | – | – | 24.98
[1], 333.15 K | – | 880.5 | – | – | –
[1], 333.2 K | – | – | – | – | 20.36
[1], 333.6 K | 0.252 | – | – | – | –
[1], 337.88 K | – | – | – | 0.1814 | –
[1], 338.2 K | – | – | – | – | 17.31
[1], 338.9 K | 0.297 | – | – | – | –
[1], 343 K | 0.331 | – | – | – | –
[1], 343.15 K | – | 874.2 | – | – | –
[1], 343.2 K | – | – | – | – | 15.85
[1], 347.85 K | – | – | – | 0.1791 | –
[1], 348.2 K | – | – | – | – | 13.19
[1], 349.3 K | 0.391 | – | – | – | –
[1], 353.15 K | – | 867.8 | – | – | –
[1], 353.2 K | – | – | – | – | 11.18
[1], 358.05 K | – | – | – | 0.1774 | –
[1], 358.2 K | – | – | – | – | 10.4
[1], 363.15 K | – | 861 | – | – | –
[1], 363.2 K | – | – | – | – | 9.406
[1], 368.2 K | – | – | – | – | 8.038
[2], 298.15 K | – | – | 318.37 | – | –
[2], 303.15 K | – | – | 320.43 | – | –
[2], 308.15 K | – | – | 323.18 | – | –
[2], 313.15 K | – | – | 325.93 | – | –
[2], 318.15 K | – | – | 328.97 | – | –
[2], 323.15 K | – | – | 332.11 | – | –
[2], 328.15 K | – | – | 335.25 | – | –
[2], 333.15 K | – | – | 339.17 | – | –
[2], 338.15 K | – | – | 343.3 | – | –
[2], 343.15 K | – | – | 347.22 | – | –
[2], 348.15 K | – | – | 351.44 | – | –
[2], 353.15 K | – | – | 353.31 | – | –
[2], 358.15 K | – | – | 359 | – | –
[2], 363.15 K | – | – | 365.08 | – | –

CCCCCCCC(=O)[O-].CCCCCCCCCCCCCC[P+](CCCCCC)(CCCCCC)CCCCCC [trihexyl(tetradecyl)phosphonium octanoate] + O
w2 = 0.1478
Details | electrical conductivity [S/m] | mass density [kg/m3] | molar heat capacity at constant pressure [J/K/mol] | thermal conductivity [W/m/K] | viscosity [mPa·s]
[1], 298.15 K | – | 901.5 | – | – | –
[1], 298.2 K | – | – | – | – | 82.71
[1], 299 K | 0.0415 | – | – | – | –
[1], 299.13 K | – | – | – | 0.1872 | –
[1], 303.15 K | – | 898.1 | – | – | –
[1], 303.2 K | – | – | – | – | 70.08
[1], 304.4 K | 0.051 | – | – | – | –
[1], 307.9 K | – | – | – | 0.1852 | –
[1], 308.2 K | – | – | – | – | 58.36
[1], 308.8 K | 0.0603 | – | – | – | –
[1], 313.15 K | – | 891.3 | – | – | –
[1], 313.2 K | – | – | – | – | 48.63
[1], 313.6 K | 0.0724 | – | – | – | –
[1], 318.01 K | – | – | – | 0.1831 | –
[1], 318.2 K | 0.0882 | – | – | – | 41.34
[1], 323.15 K | – | 884.7 | – | – | –
[1], 323.2 K | – | – | – | – | 35.7
[1], 323.8 K | 0.101 | – | – | – | –
[1], 327.85 K | – | – | – | 0.1821 | –
[1], 328.2 K | – | – | – | – | 30.82
[1], 328.6 K | 0.119 | – | – | – | –
[1], 333.15 K | – | 877.7 | – | – | –
[1], 333.2 K | – | – | – | – | 26.32
[1], 333.4 K | 0.139 | – | – | – | –
[1], 337.66 K | – | – | – | 0.1801 | –
[1], 338.1 K | 0.164 | – | – | – | –
[1], 338.2 K | – | – | – | – | 22.53
[1], 343.15 K | – | 870.8 | – | – | –
[1], 343.2 K | – | – | – | – | 19.93
[1], 343.5 K | 0.182 | – | – | – | –
[1], 347.48 K | – | – | – | 0.1791 | –
[1], 348.2 K | – | – | – | – | 17.29
[1], 349.7 K | 0.215 | – | – | – | –
[1], 353.15 K | – | 863.8 | – | – | –
[1], 353.2 K | – | – | – | – | 15.03
[1], 358 K | – | – | – | 0.1771 | –
[1], 358.2 K | – | – | – | – | 13.44
[1], 363.15 K | – | 857.1 | – | – | –
[1], 363.2 K | – | – | – | – | 11.86
[1], 368.2 K | – | – | – | – | 10.87
[2], 298.15 K | – | – | 319.61 | – | –
[2], 303.15 K | – | – | 322.43 | – | –
[2], 308.15 K | – | – | 325.15 | – | –
[2], 313.15 K | – | – | 326.51 | – | –
[2], 318.15 K | – | – | 329.23 | – | –
[2], 323.15 K | – | – | 332.16 | – | –
[2], 328.15 K | – | – | 335.5 | – | –
[2], 333.15 K | – | – | 338.32 | – | –
[2], 338.15 K | – | – | 340.52 | – | –
[2], 343.15 K | – | – | 342.51 | – | –
[2], 348.15 K | – | – | 345.96 | – | –
[2], 353.15 K | – | – | 350.45 | – | –
[2], 358.15 K | – | – | 353.8 | – | –
[2], 363.15 K | – | – | 358.19 | – | –
